Data: patent publication US20200123147A1, “THIAZOLE COMPOUNDS USEFUL AS PRMT5 INHIBITORS” (Bayer Aktiengesellschaft, priority 2017, published 2020)
pIC50: −log10 of the molar value.

Target: T1, PRMT5:MEP50 protein complex (Homo sapiens, UniProt O14744)
T1 construct: FLAG (N); made in house; host or cells: Hi5 insect cells
Test: In vitro assay 1: PRMT5 SPA assay ("EAA")
Format: biochemical
Conditions: scintillation proximity assay, methylation of biotinylated H4(1-24) peptide, 3H-SAM, 60 min at 22° C.
Excerpt: In Vitro Assay 1: PRMT5 SPA Assay (“EAA”)
PRMT5 inhibitory activities of the compounds described in the present invention were quantified using a scintillation proximity assay (SPA) which measures methylation by the enzyme of a synthetic, biotinylated peptide corresponding to the N-terminal sequence of Histone H4 (a.a. 1-24). The peptide of sequence […]-K(Btn)-amide is commercially available (e.g. from Biosyntan) and will be herein referred to as H4(1-24). The PRMT5:MEP50 protein complex used in the assay was produced in house following standard protocols. Briefly, full length PRMT5 and MEP50 constructs respectively tagged with N-terminal FLAG and 6× His sequences were co-expressed in Hi5 insect cells, and the recombinant protein complex was purified by FLAG affinity and size exclusion chromatography.
In a typical assay 11 different concentrations of each compound (0.1 nM, 0.33 nM, 1.1 nM, 3.8 nM, 13 nM, 44 nM, 0.15 μM, 0.51 μM, 1.7 μM, 5.9 μM and 20 μM) were tested in duplicate within the same microtiter plate. To this end, 100-fold concentrated compound solutions (in DMSO) were previously prepared by serial dilution (1:3.4) of 2 mM stocks in a clear low volume 384-well source microtiter plate (Greiner Bio-One), from which 50 nl of compounds were transferred into a white low volume test microtiter plate from the same supplier. Subsequently, 2.5 μL PRMT5 in aqueous assay buffer [20 mM Bicine pH 8.0 (Alfa Aesar), 7.5 mM Tris(2-carboxyethyl) phosphine hydrochloride (TCEP, Sigma), 0.1% (w/v) bovine gamma globuline (BGG, Sigma), 0.002% (v/v) Tween-20 (Sigma)] were added to the compounds in the test plate to a final enzyme concentration of—typically—7.5 nM (this parameter was adjusted depending on the activity of the enzyme lot in order to be within the linear dynamic range of the assay). The samples were then incubated for 15 min at 22° C. to allow pre-equilibration of the putative enzyme-inhibitor complexes before the start of the methylation reaction, which was initiated by the addition of 2.5 μL 2-fold concentrated solution (in assay buffer) of “cold” S-Adenosyl-L-Methionine (SAM, Sigma, final concentration: 0.5 μM), tritiated 3H-SAM (Perkin Elmer, final concentration: 0.5 μM) and H4(1-24) peptide substrate (final concentration: 0.06 μM). The resulting mixture (5 μL final volume) was shortly centrifuged (2 min., 1500 rpm) and incubated at 22° C. during 60 min. Thereupon the reaction was stopped by adding 3 μL of Streptavidin PS SPA imaging beads (Perkin Elmer, final concentration of 0.375 μg/μL) and “cold” SAM (AK Scientific, 250 μM final concentration) for non-specific binding reduction. Plates containing the stopped reaction were sealed with transparent adhesive foil (Perkin Elmer), centrifuged (2 min., 1500 rpm), and further incubated either 1 h at 22° C. or overnight at 4° C. in order to allow the SPA signals to develop. Subsequently, the amount of product was evaluated by measuring the energy transfer from the β-particles emitted by the 3H-labeled substrate to the Europium scintillator co-polymerized in the polystyrene matrix of the PS imaging beads, using the standard settings for this purpose of a Viewlux (Perkin-Elmer) CCD plate imaging device (emission filter 613/55 (IFP).
The resulting scintillation counts were taken as indicator for the amount of methylated peptide per well. The data were normalised using two sets of control wells (typically 16 each) for high—(=enzyme reaction with DMSO instead of test compound=0%=minimum inhibition) and low—(=all assay components without enzyme=100%=maximum inhibition) PRMT5 activity. IC50 values were calculated by fitting the normalized inhibition data to a 4-parameter logistic equation using the “Screener” analysis software from Genedata.

T1 sequence (O14744 whole entry, species assumed): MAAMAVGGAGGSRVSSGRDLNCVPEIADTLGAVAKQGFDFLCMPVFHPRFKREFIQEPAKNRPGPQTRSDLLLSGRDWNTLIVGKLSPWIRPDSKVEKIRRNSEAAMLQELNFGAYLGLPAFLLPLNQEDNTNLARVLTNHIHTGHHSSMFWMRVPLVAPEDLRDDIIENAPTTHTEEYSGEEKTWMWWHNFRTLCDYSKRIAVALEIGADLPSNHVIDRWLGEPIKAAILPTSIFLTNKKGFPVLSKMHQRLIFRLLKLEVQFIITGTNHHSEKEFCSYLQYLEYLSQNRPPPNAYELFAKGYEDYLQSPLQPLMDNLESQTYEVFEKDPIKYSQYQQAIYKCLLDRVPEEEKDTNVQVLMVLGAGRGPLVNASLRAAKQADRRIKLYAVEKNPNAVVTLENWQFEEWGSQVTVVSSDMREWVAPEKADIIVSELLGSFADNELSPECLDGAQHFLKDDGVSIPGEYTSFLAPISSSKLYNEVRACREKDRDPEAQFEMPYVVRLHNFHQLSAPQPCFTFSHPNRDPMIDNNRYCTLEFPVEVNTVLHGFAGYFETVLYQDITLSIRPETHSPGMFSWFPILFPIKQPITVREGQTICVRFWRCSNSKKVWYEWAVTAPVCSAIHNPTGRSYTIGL
T1 sequence (Q9BQA1 whole entry partner, species assumed): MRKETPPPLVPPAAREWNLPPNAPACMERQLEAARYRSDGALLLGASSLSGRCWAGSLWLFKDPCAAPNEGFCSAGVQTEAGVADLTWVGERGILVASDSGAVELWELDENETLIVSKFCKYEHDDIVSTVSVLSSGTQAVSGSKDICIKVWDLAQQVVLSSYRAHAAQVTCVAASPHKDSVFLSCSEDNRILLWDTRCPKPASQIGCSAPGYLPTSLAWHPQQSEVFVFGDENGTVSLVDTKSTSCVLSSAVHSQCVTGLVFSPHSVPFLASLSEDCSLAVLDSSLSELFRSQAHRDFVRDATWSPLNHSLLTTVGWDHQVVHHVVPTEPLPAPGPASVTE

| Structure (SMILES) | pIC50 |
| --- | --- |
| N#Cc1c[nH]nc1NC(=O)c1csc(Nc2ccccc2)n1 [Example 30, N-(4-Cyano-1H-pyrazol-3-yl)-2-(phenylamino)-1,3-thiazole-4-carboxamide] | 4.92 |
| CC(C)(C)c1cc(NC(=O)c2csc(Nc3ccccc3F)n2)no1 [Example 25, N-(5-tert-Butyl-1,2-oxazol-3-yl)-2-[(2-fluorophenyl)amino]-1,3-thiazole-4-carboxamide] | 5.60 |
| O=C(Nc1cnn(C2COC2)c1)c1csc(Nc2ccc(Cl)cc2)n1 [Example 31, 2-[(4-Chlorophenyl)amino]-N-[1-(oxetan-3-yl)-1H-pyrazol-4-yl]-1,3-thiazole-4-carboxamide] | 4.82 |
| CC(C)(C)c1cc(NC(=O)c2csc(NCCc3ccccc3)n2)no1 [Example 37, N-(5-tert-Butyl-1,2-oxazol-3-yl)-2-[(2-phenylethyl)amino]-1,3-thiazole-4-carboxamide] | 6.92 |
| CC(C)(C)c1cc(NC(=O)c2csc(Nc3ccc(Cl)cn3)n2)no1 [Example 35, N-(5-tert-Butyl-1,2-oxazol-3-yl)-2-[(5-chloropyridin-2-yl)amino]-1,3-thiazole-4-carboxamide] | 7.30 |
| O=C(Nc1nccs1)c1csc(Nc2ccc(Cl)cc2)n1 [Example 11, 2-[(4-Chlorophenyl)amino]-N-(1,3-thiazol-2-yl)-1,3-thiazole-4-carboxamide] | 6.55 |
| Cc1ccc(Nc2nc(C(=O)Nc3cc(C(C)(C)C)on3)cs2)nc1 [Example 34, N-(5-tert-Butyl-1,2-oxazol-3-yl)-2-[(5-methylpyridin-2-yl)amino]-1,3-thiazole-4-carboxamide] | 7.38 |
| CC(C)(C)c1cc(NC(=O)c2csc(Nc3ccc(Cl)c(F)c3)n2)no1 [Example 39, N-(5-tert-Butyl-1,2-oxazol-3-yl)-2-[(4-chloro-3-fluorophenyl)amino]-1,3-thiazole-4-carboxamide] | 6.74 |
| O=C(NCCCN1CCc2ccccc2C1)c1csc(Nc2ccc(Cl)cc2)n1 [Example 26, 2-[(4-Chlorophenyl)amino]-N-[3-(3,4-dihydroisoquinolin-2(1H)-yl)propyl]-1,3-thiazole-4-carboxamide] | 5.11 |
| CC(C)(C)c1cc(NC(=O)c2csc(Nc3ccc4c(c3)CCC4)n2)no1 [Example 38, N-(5-tert-Butyl-1,2-oxazol-3-yl)-2-(2,3-dihydro-1H-inden-5-ylamino)-1,3-thiazole-4-carboxamide] | 6.80 |
| CC(C)(C)c1cc(NC(=O)c2csc(Nc3ccc(C#N)cc3)n2)no1 [Example 24, N-(5-tert-Butyl-1,2-oxazol-3-yl)-2-[(4-cyanophenyl)amino]-1,3-thiazole-4-carboxamide] | 5.60 |
| CC(C)(C)c1cc(NC(=O)c2csc(Nc3ccc(F)cn3)n2)no1 [Example 6, N-(5-tert-Butyl-1,2-oxazol-3-yl)-2-[(5-fluoropyridin-2-yl)amino]-1,3-thiazole-4-carboxamide] | 6.93 |
| O=C(Nc1ccn(CCO)n1)c1csc(Nc2ccccc2)n1 [Example 28, N-[1-(2-Hydroxyethyl)-1H-pyrazol-3-yl]-2-(phenylamino)-1,3-thiazole-4-carboxamide] | 5.04 |
| O=C(c1csc(Nc2ccc(Cl)cc2)n1)N1CCC(N2CCc3ccccc3C2)CC1 [Example 27, {2-[(4-Chlorophenyl)amino]-1,3-thiazol-4-yl}{4-[3,4-dihydroisoquinolin-2(1H)-yl]piperidin-1-yl}methanone] | 5.12 |
| Cc1c(NC(=O)c2csc(Nc3ccc(Cl)cc3)n2)noc1C(C)(C)C [Example 29, N-(5-tert-Butyl-4-methyl-1,2-oxazol-3-yl)-2-[(4-chlorophenyl)amino]-1,3-thiazole-4-carboxamide] | 5.01 |
| CC(C)(C)c1cc(NC(=O)c2csc(Nc3cc(Cl)ccn3)n2)no1 [Example 36, N-(5-tert-Butyl-1,2-oxazol-3-yl)-2-[(4-chloropyridin-2-yl)amino]-1,3-thiazole-4-carboxamide] | 6.98 |
| CC(C)(C)c1cc(NC(=O)c2csc(NC3CC3)n2)no1 [Example 32, N-(5-tert-Butyl-1,2-oxazol-3-yl)-2-(cyclopropylamino)-1,3-thiazole-4-carboxamide] | 4.83 |

Next, values leading:

| pIC50 | Structure (SMILES) |
| --- | --- |
| 4.82 | CC(C)(C)c1cc(NC(=O)c2csc(Nc3ccc(F)nc3)n2)no1 [Example 53, N-(5-tert-Butyl-1,2-oxazol-3-yl)-2-[(6-fluoropyridin-3-yl)amino]-1,3-thiazole-4-carboxamide] |
| 6.37 | Cc1ccc(Nc2nc(C(=O)Nc3cc(C(C)(C)C)on3)cs2)c(F)c1 [Example 41, N-(5-tert-Butyl-1,2-oxazol-3-yl)-2-[(2-fluoro-4-methylphenyl)amino]-1,3-thiazole-4-carboxamide] |
| 6.22 | CC(C)(C)c1cc(NC(=O)c2csc(NCc3ccco3)n2)no1 [Example 44, N-(5-tert-Butyl-1,2-oxazol-3-yl)-2-[(furan-2-ylmethyl)amino]-1,3-thiazole-4-carboxamide] |
| 6.46 | CC(C)(C)c1cc(NC(=O)c2csc(Nc3ccc4ccoc4c3)n2)no1 [Example 40, 2-(1-Benzofuran-6-ylamino)-N-(5-tert-butyl-1,2-oxazol-3-yl)-1,3-thiazole-4-carboxamide] |
| 4.91 | CC(C)(C)c1cc(NC(=O)c2csc(Nc3cccc(F)c3F)n2)no1 [Example 52, N-(5-tert-Butyl-1,2-oxazol-3-yl)-2-[(2,3-difluorophenyl)amino]-1,3-thiazole-4-carboxamide] |
| 4.98 | C#Cc1cccc(Nc2nc(C(=O)Nc3cc(C(C)(C)C)on3)cs2)c1 [Example 51, N-(5-tert-Butyl-1,2-oxazol-3-yl)-2-[(3-ethynylphenyl)amino]-1,3-thiazole-4-carboxamide] |
| 5.17 | Cc1cc(F)ccc1Nc1nc(C(=O)Nc2cc(C(C)(C)C)on2)cs1 [Example 50, N-(5-tert-Butyl-1,2-oxazol-3-yl)-2-[(4-fluoro-2-methylphenyl)amino]-1,3-thiazole-4-carboxamide] |
| 5.92 | CC(C)(C)c1cc(NC(=O)c2csc(Nc3ccc(F)c(Cl)c3)n2)no1 [Example 46, N-(5-tert-Butyl-1,2-oxazol-3-yl)-2-[(3-chloro-4-fluorophenyl)amino]-1,3-thiazole-4-carboxamide] |
| 6.29 | CC(C)(C)c1cc(NC(=O)c2csc(NCc3cccc(F)c3)n2)no1 [Example 42, N-(5-tert-Butyl-1,2-oxazol-3-yl)-2-[(3-fluorobenzyl)amino]-1,3-thiazole-4-carboxamide] |
| 5.89 | CC(C)(C)c1cc(NC(=O)c2csc(Nc3ccccc3C(=O)Nc3cc4ccccc4cn3)n2)no1 [Example 47, N-(5-tert-Butyl-1,2-oxazol-3-yl)-2-{[2-(isoquinolin-3-ylcarbamoyl)phenyl]amino}-1,3-thiazole-4-carboxamide] |
| 5.25 | CC(C)(C)c1cc(NC(=O)c2csc(NCC3CCCO3)n2)no1 (racemic) [Example 49, (rac)-N-(5-tert-Butyl-1,2-oxazol-3-yl)-2-{[-tetrahydrofuran-2-ylmethyl]amino}-1,3-thiazole-4-carboxamide] |
| 6.29 | Cc1cccc(Nc2nc(C(=O)Nc3cc(C(C)(C)C)on3)cs2)c1 [Example 43, N-(5-tert-Butyl-1,2-oxazol-3-yl)-2-[(3-methylphenyl)amino]-1,3-thiazole-4-carboxamide] |
